Source: patent publication US9901591B2, “Paeoniflorin preparations and uses thereof for fat reduction” (priority 2008, dated 2018)
“And” between values parts separate entries of the source, which are not always exact repeats. Equal values may be shown once.

Assays:
[1] = Blood indices before and after PF treatment in patients; format: in vivo, human; details: before vs after treatment with PF
[2] = test system: Adiponectin receptor 1 (Adipor1); assay: Oligo GEArray microarray of obesity-related genes in 3T3-L1 adipocytes; format: cell-based, mouse; details: for Ratio of expression signals of Adipor1 compared to control: 1 umol/L PF, control = 1
Method: (§1) 3T3-L1 adipocytes were cultured in medium containing 1 umol/L PF as test group and medium only as control. Total RNA was extracted and Oligo GEArray was tested using Superarray OMM-17. The GEArray includes 111 obesity-related genes that are directly involved in the regulation of energy intake and expenditure. The genes included orexigenic peptides, hormones, and receptors, anorectic peptides, hormones, receptors, and central and peripheral signaling molecules involved in energy expenditure. The increase changes or decrease changes of more than 1.5 fold are regarded meaningful according to the diagnosis discipline, as described in the insert literature of a metabolic disease/obesity gene panel product purchased from Superarray Bioscience Corporation. (Frederick, Md.). […] In the graphs, the data above the upper line and the data below the lower line show a significant change of gene expression.

[3] = test system: Adra2b; assay: as above; format: cell-based, mouse; details: for Ratio of expression signals of Adra2b compared to control: 3T3-L1 adipocytes, 1 umol/L PF, control = 1
Method: as §1

[4] = test system: Adrb2; assay: as above; format: cell-based, mouse; details: for Ratio of expression signals of Adrb2 compared to control: 1 umol/L PF, control = 1
Method: as §1

[5] = test system: Peroxisome proliferators activated receptor gamma (Pparg); assay: as above; format: cell-based, mouse; details: for Ratio of expression signals of Pparg compared to control: 1 umol/L PF, control = 1
Method: as §1

[6] = test system: Adrb3; assay: as above; format: cell-based, mouse; details: for Ratio of expression signals of Adrb3 compared to control: 1 umol/L PF, control = 1
Method: as §1

[7] = test system: β1-adrenergic receptor (Adrb1); assay: as above; format: cell-based, mouse; details: for Ratio of expression signals of Adrb1 compared to control: 3T3-L1 adipocytes, 1 umol/L PF, control = 1
Method: as §1

[8] = Fat reduction with PF/azone creme and low current in patients; format: in vivo, human
Method: Concentration of PF included into the topical preparation: 0.2 mg to 0.3 mg of PF were dissolved in 1 ml of azone liquid.
A low current of […] is then passed through pads placed on the skin of the desired treatment area which then drives the PF through the skin into the adipose tissues, thus allowing the PF to come in contact with the fat cells.
The present preparations may be provided in the form of a creme containing 1 ml of PF at a concentration of 1 mmol mixed with 1 ml of azone which is then massaged into the target area. Azone has been extensively studied using a range of permeants. […] This process leads to increased lipid fluidity and enhanced drug diffusion. This is the reason PF was mixed with azone. Furthermore, a low current is then passed through the tissue area, which then drives the PF through the skin into the adipose tissues. PF may in this way come in contact with fat cells. The clinical results are show below and the details of each patient is documented.

[9] = Targeted fat reduction with injectable PF preparation in patients; format: in vivo, human; details: alternative protocol, 20 small (0.1 to 0.2 ml) injections per session, 5 sessions
[10] = test system: intracellular cyclic AMP; assay: Intracellular cyclic AMP by ELISA in 3T3-L1 adipocytes; format: cell-based, mouse; details: PF, vs control
Method: 3T3-L1 adipocytes were cultured in medium containing […] PF as test group and medium only as control. Cells were lysed by adding 0.1 N HCL, and intracellular cyclic AMP was measured by ELISA.

[11] = test system: Carboxypeptidase E (Cpe); assay: Oligo GEArray microarray of obesity-related genes in 3T3-L1 adipocytes; format: cell-based, mouse; details: for Ratio of expression signals of Cpe compared to control: 1 umol/L PF, control = 1
Method: 3T3-L1 adipocytes were cultured in medium containing 1 umol/L PF as test group and medium only as control. Total RNA was extracted and Oligo GEArray was tested using Superarray OMM-17. The GEArray includes 111 obesity-related genes that are directly involved in the regulation of energy intake and expenditure. The genes included orexigenic peptides, hormones, and receptors, anorectic peptides, hormones, receptors, and central and peripheral signaling molecules involved in energy expenditure. The increase changes or decrease changes of more than 1.5 fold are regarded meaningful according to the diagnosis discipline, as described in the insert literature of a metabolic disease/obesity gene panel product purchased from Superarray Bioscience Corporation. (Frederick, Md.).
In the graphs, the data above the upper line and the data below the lower line show a significant change of gene expression.

[12] = human, in vivo
Method: For Regular Injections: After sterilization of the surface area with 74% ethanol, topical application of lignocaine ointment or lidocaine gel was applied for 5 minutes to numb the skin where the injections are to take place.
For Booster Injection: The patient is prepared using 1 ml of 2% lidocaine to anaesthetize the site of entry of the large needle. This way, the procedure is almost painless. 3-5 minutes later, the booster injection is given slowly over a 3 minute period.
Patients are forewarned that bruising may occur due to the injections. Thus, some bruising in a patient may be expected. […] The bruising, usually disappears within 1 week. In addition, redness and tenderness at the injection site of the booster, is very common. Redness lasts for a couple of hours and the tenderness lasts for a couple of days. Bruising, is encountered more with the booster than the regular injections, but also disappears within a week or so. Another observation is fatigue as a result of treatment in some patients. […] In addition, a very slight rise in temperature, to about 37.1 or 37.2 for a few hours, was noted.

[13] = per patient, number of times as in table

C[C@@]12C[C@@]3(O)O[C@@H](O1)[C@]1(COC(=O)c4ccccc4)[C@H]3C[C@@]12O[C@@H]1O[C@H](CO)[C@@H](O)[C@H](O)[C@H]1O [PF, paeoniflorin]
blood sugar levels [1]: decreased upon treatment
Ratio of expression signals of Adipor1 compared to control ([2]; 3 days): 0.68
Ratio of expression signals of Adipor1 compared to control ([2]; 6 days): 1.21
Ratio of expression signals of Adipor1 compared to control ([2]; 7 days): 1.86
increase of Adipor1 expression ([2]; day 7 of exposure to PF): 1.86 fold
effect on expression of Adra2b ([3]; 3T3-L1 adipocytes exposed to PF, whole study): no effect on Adra2b
Ratio of expression signals of Adra2b compared to control ([3]; 3 days): 0.92
Ratio of expression signals of Adra2b compared to control ([3]; 6 days): 1.44
Ratio of expression signals of Adra2b compared to control ([3]; 7 days): 1.27
Ratio of expression signals of Adrb2 compared to control ([4]; 3 days): 0.74
Ratio of expression signals of Adrb2 compared to control ([4]; 6 days): 1.96
Ratio of expression signals of Adrb2 compared to control ([4]; 7 days): 7.40
increase of Adrb2 expression ([4]; 7 days post exposure to PF): 7.4 fold
Ratio of expression signals of Pparg compared to control ([5]; 3 days): 0.91
Ratio of expression signals of Pparg compared to control ([5]; 6 days): 1.09
Ratio of expression signals of Pparg compared to control ([5]; 7 days): 0.64
reduction of the level of expression of Pparg ([5]; day 7 of exposure to PF): 1.54 fold
Ratio of expression signals of Adrb3 compared to control ([6]; 3 days): 1.56
Ratio of expression signals of Adrb3 compared to control ([6]; 6 days): 3.18
Ratio of expression signals of Adrb3 compared to control ([6]; 7 days): 5.65
increase of Adrb3 expression ([6]; 7 days post exposure to PF): 5.65 fold
effect on expression of Adrb1 ([7]; 3T3-L1 adipocytes exposed to PF): significant increase
Ratio of expression signals of Adrb1 compared to control ([7]; 3 days): 3.39
Ratio of expression signals of Adrb1 compared to control ([7]; 6 days): 0.8
Ratio of expression signals of Adrb1 compared to control ([7]; 7 days): 0.58
AMOUNT OF REDUCTION IN CM, each side of the upper thigh ([8]; patient #3, 6 times): 2 cm from each side of the upper
AMOUNT OF REDUCTION IN CM, left buttock ([8]; patient #4, 7 times): 9 cm from the left buttock
AMOUNT OF REDUCTION IN CM, right buttock ([8]; patient #4, 7 times): 8 cm from the right buttock &
AMOUNT OF REDUCTION IN CM, each leg below the knees ([8]; patient #5, 8 times): 9 cm and 10 cm
AMOUNT OF REDUCTION IN CM, left thigh ([8]; patient #7, 9 times): 6 cm
AMOUNT OF REDUCTION IN CM, right thigh ([8]; patient #7, 9 times): 8 cm
AMOUNT OF REDUCTION, bra size ([8]; patient #8, 30 times): 1.5 size in bra size
AMOUNT OF REDUCTION IN CM, love handles ([8]; patient #12, 8 times): 10 cm from love handles and
AMOUNT OF REDUCTION IN CM, above and below the umbilicus [8, 13]: 3.5 cm above and below the
AMOUNT OF REDUCTION IN CM, above the umbilicus [8, 13]: 7 cm and 6 cm and 10 cm above the umbilicus, and 9 cm above the umbilicus. 9 cm
AMOUNT OF REDUCTION IN CM, below the umbilicus [8, 13]: 9 cm and 9.5 cm below the umbilicus and 6 cm below the umbilicus
AMOUNT OF REDUCTION IN CM, midsection [8, 13]: 10 cm and 5 cm from the waist and 5 cm and 9 cm above the umbilicus. 9 cm
measurable fat loss [9]: 3 cm
intracellular cAMP ([10]; first day / 24 hours): significantly increased
intracellular cAMP ([10]; third day / 72 hours): significantly increased
Ratio of expression signals of Cpe compared to control ([11]; 3 days): 0.79
Ratio of expression signals of Cpe compared to control ([11]; 6 days): 1.04
Ratio of expression signals of Cpe compared to control ([11]; 7 days): 2.67
increase of Cpe expression compared to the control ([11]; day 7 of exposure to PF): 2.67 fold
bruising [12]: bruising was observed
diarrhea [12]: No diarrhea was observed
dizziness [12]: observed in a few patients
fatigue [12]: Two patients suffered from fatigue
redness and tenderness at the injection site [12]: very common
rise in temperature [12]: about 37.1 or 37.2
stool [12]: softer stool was reported
time until bruising disappears [12]: ≤ 1 week
